Laboratory results as given in patent US20240316249A1, “INJECTION FORMULATION COMPOSITION FOR USE AS FILLER OR DRUG CARRIER THROUGH CLICK CHEMISTRY REACTION” (AJOU UNIVERSITY INDUSTRY-ACADEMIC COOPERATION FOUNDATION, priority 2018, published 2024).
“Also recorded” adds a separate entry of the source.

Assay: Amount of doxorubicin in tumor and organs after injection
Format: in vivo, mice
Method: To perform a pharmacokinetic experiment, mice were sacrificed on day 1, day 6, day 12, and day 18. Organs (tumors, the intestines, lungs, kidneys, liver, spleen, and heart) were immediately acquired and photographed (FIG. 12). To measure the amount of doxorubicin remaining in each organ, each organ was homogenized in a 0.3N HCl/70% ethanol solution at 25,000 rpm to 30,000 rpm using a T 10 basic ULTRA-TURRAX Homogenizer (IKA-Werke GmbH & Co., Staufen, Germany), followed by incubation at 37° C. for 15 minutes. Each uniformly mixed sample was mixed with the same volume of 40% ZnSO4 and a mobile phase, and incubated again at 37° C. for 15 minutes. When the incubation was completed, each sample was centrifuged at 2,000 rpm for 10 minutes, and the amount of doxorubicin contained in the supernatant was calculated by referring to the standard calibration curve. The amount of doxorubicin contained in each organ was measured by a UV-visible Spectrophotometer (V-770, JASCO Inc., Tokyo, Japan) (FIG. 13).

COc1cccc2c1C(=O)c1c(O)c3c(c(O)c1C2=O)C[C@@](O)(C(=O)CO)C[C@@H]3O[C@H]1C[C@H](N)[C@H](O)[C@H](C)O1 [Dox, doxorubicin]
occurrence of side effects due to the anticancer agent (Dox repeat injection (0.1 mg Dox)): induces various side effects | distribution of anticancer agent in tumor and organs (Dox repeat injection (0.1 mg Dox), compared to injection of doxorubicin alone (FIG. 13)): a large amount of anticancer agent is present in a tumor; also recorded: a large amount of anticancer agent remains in various organs | distribution of anticancer agent in tumor and organs (single injection 0.4 mg Dox, day 1, 6, 12, 18 (FIG. 13)): distributed more rapidly to various organs than a tumor
